Results taken from ChEMBL document CHEMBL5543122, “Discovery of HC-7366: An Orally Bioavailable and Efficacious GCN2 Kinase Activator” (J Med Chem, 2024).
Active and inactive are the calls of the source. No cut-off for these calls is given here.

Key:
eIF-2-alpha kinase GCN2 [1] = biological target: T1, eIF-2-alpha kinase GCN2 (Homo sapiens, UniProt Q9P2K8); assay: Activation of GCN2 in HEK293 cells transfected with ATF4 response element preincubated for 30 mins followed by halofuginone addition and measured after 6 hrs by One-Glo reagent based plate reader assay; type: cell-based
[2] = biological target: T2, Eukaryotic translation initiation factor 2-alpha kinase 3 (Homo sapiens) (UniProt Q9NZJ5); assay: Activation of PERK in HEK293 cells transfected with ATF4 response element assessed as unbound effective concentration preincubated for 30 mins followed by tunicamycin addition and measured after 6 hrs by One-Glo reagent based plate reader assay; type: cell-based; conditions: filed as activator, time 6.5 hrs
T2 sequence (whole entry): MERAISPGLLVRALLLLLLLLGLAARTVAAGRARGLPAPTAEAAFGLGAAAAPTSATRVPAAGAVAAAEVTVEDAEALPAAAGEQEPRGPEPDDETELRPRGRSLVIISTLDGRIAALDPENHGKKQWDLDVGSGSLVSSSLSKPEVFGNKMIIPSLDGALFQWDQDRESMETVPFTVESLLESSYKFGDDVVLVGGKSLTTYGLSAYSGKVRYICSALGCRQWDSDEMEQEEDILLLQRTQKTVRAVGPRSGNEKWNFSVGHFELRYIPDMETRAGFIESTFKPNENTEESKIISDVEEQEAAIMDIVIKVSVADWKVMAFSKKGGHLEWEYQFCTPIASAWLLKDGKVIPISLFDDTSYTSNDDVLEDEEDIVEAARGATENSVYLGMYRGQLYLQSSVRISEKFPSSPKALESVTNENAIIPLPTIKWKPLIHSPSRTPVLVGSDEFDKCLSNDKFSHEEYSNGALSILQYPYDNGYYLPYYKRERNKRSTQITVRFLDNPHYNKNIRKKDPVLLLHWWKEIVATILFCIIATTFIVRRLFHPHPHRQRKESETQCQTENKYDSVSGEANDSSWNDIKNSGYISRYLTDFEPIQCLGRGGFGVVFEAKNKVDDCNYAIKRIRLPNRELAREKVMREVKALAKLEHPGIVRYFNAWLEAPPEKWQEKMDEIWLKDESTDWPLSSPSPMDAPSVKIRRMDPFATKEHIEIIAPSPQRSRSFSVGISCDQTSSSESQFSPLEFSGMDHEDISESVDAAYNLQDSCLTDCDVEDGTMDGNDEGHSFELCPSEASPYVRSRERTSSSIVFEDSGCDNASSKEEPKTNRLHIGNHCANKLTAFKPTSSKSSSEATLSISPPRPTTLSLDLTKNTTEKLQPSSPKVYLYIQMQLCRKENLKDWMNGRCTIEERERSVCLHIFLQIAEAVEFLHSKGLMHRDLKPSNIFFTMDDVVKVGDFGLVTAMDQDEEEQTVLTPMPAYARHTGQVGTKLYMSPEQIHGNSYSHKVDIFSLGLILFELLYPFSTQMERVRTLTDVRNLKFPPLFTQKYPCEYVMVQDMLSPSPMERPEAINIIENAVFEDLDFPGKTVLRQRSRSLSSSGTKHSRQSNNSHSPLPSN

[3] = biological target: T3, Eukaryotic translation initiation factor 2-alpha kinase 3 (Homo sapiens, UniProt Q9NZJ5); assay: Activation of PERK in HEK293 cells transfected with ATF4 response element preincubated for 30 mins followed by tunicamycin addition and measured after 6 hrs by One-Glo reagent based plate reader assay; type: cell-based
T3 sequence (Q9NZJ5 whole entry): T2 sequence (whole entry)

Cytochrome P450 3A4 = Cytochrome P450 3A4 (Homo sapiens, UniProt P08684); assay: Inhibition of CYP3A4 in human liver microsomes using midazolam substrate incubated for 5 mins in presence of NADPH by UPLC-MS/MS analysis
eIF-2-alpha kinase GCN2 [4] = biological target: T1, eIF-2-alpha kinase GCN2; assay: Inhibition of GCN2 (unknown origin) using GFP-eIF2alpha as substrate incubated for 1.5 hrs in presence of ATP by plate reader analysis
eIF-2-alpha kinase GCN2 [5] = biological target: T1, eIF-2-alpha kinase GCN2; conditions: HEK293, filed as activator, time 6.5 hrs
[6] = Protein binding in HEK293 cells assessed as free fraction; type: ADME, cell-based; conditions: human
[7] = Volume of distribution at steady state in Sprague-Dawley rat at 1 mg/kg, iv measured upto 24 hrs; type: ADME, organism-based; conditions: in vivo, read-out: Vdss
[8] = Half-life in Sprague-Dawley rat at 1 mg/kg, iv measured upto 24 hrs; type: ADME, organism-based; conditions: in vivo
[9] = Unbound Cmax in Sprague-Dawley rat at 3 mg/kg, po measured upto 24 hrs; type: ADME, organism-based; conditions: in vivo
[10] = Unbound fraction in Sprague-Dawley rat plasma at 1 mg/kg, iv measured upto 24 hrs; type: ADME, organism-based
[11] = Oral bioavailability in Sprague-Dawley rat at 3 mg/kg measured upto 24 hrs; type: ADME, organism-based; conditions: in vivo; for F: po, 3 mg/kg, 24 h
[12] = Unbound AUC in Sprague-Dawley rat at 3 mg/kg, po measured upto 24 hrs; type: ADME, organism-based; conditions: in vivo
[13] = Unbound clearance in Sprague-Dawley rat plasma at 1 mg/kg, iv measured upto 24 hrs; type: ADME, organism-based; conditions: in vivo
[14] = Intrinsic clearance in rat hepatocytes assessed per 10^4 cells at 1 uM measured upto 120 mins by UPLC-MS/MS analysis; type: ADME, cell-based, Hepatocyte; conditions: 2 h
[15] = Intrinsic clearance in human hepatocytes assessed per 10^4 cells at 1 uM measured upto 120 mins by UPLC-MS/MS analysis; type: ADME, cell-based, Hepatocyte; conditions: 2 h
[16] = Unbound volume of distribution at steady state in Sprague-Dawley rat at 1 mg/kg, iv measured upto 24 hrs; type: ADME, organism-based; conditions: in vivo
[17] = Cmax in Sprague-Dawley rat at 3 mg/kg, po measured upto 24 hrs; type: ADME, organism-based; conditions: in vivo
physchem = conditions: 1-octanol/PBS, pH 7.4
Mus musculus [18] = assay: In vivo activation of GCN2 in BALB/c nude mouse xenografted with human HT-1080 cells assessed as […] ASNS protein level in tumor at 0.3 to 3 mg/kg after 6 hrs; type: functional, organism-based; conditions: dose 0.3-3 mg/kg
Mus musculus [19] = assay: In vivo activation of GCN2 in BALB/c nude mouse xenografted with human HT-1080 cells assessed as […] ATF4 protein level in tumor at 0.3 to 3 mg/kg after 6 hrs; type: functional, organism-based; conditions: dose 0.3-3 mg/kg
MOLM-16 = assay: Antitumor activity against human MOLM16 cells xenografted in BALB/c nude mouse assessed as reduction in tumor growth at 1 to 3 mg/kg administered twice a day for 17 days; type: functional, organism-based; conditions: dose 1-3 mg/kg, time 17.0 day

T1 sequence (Q9P2K8 whole entry): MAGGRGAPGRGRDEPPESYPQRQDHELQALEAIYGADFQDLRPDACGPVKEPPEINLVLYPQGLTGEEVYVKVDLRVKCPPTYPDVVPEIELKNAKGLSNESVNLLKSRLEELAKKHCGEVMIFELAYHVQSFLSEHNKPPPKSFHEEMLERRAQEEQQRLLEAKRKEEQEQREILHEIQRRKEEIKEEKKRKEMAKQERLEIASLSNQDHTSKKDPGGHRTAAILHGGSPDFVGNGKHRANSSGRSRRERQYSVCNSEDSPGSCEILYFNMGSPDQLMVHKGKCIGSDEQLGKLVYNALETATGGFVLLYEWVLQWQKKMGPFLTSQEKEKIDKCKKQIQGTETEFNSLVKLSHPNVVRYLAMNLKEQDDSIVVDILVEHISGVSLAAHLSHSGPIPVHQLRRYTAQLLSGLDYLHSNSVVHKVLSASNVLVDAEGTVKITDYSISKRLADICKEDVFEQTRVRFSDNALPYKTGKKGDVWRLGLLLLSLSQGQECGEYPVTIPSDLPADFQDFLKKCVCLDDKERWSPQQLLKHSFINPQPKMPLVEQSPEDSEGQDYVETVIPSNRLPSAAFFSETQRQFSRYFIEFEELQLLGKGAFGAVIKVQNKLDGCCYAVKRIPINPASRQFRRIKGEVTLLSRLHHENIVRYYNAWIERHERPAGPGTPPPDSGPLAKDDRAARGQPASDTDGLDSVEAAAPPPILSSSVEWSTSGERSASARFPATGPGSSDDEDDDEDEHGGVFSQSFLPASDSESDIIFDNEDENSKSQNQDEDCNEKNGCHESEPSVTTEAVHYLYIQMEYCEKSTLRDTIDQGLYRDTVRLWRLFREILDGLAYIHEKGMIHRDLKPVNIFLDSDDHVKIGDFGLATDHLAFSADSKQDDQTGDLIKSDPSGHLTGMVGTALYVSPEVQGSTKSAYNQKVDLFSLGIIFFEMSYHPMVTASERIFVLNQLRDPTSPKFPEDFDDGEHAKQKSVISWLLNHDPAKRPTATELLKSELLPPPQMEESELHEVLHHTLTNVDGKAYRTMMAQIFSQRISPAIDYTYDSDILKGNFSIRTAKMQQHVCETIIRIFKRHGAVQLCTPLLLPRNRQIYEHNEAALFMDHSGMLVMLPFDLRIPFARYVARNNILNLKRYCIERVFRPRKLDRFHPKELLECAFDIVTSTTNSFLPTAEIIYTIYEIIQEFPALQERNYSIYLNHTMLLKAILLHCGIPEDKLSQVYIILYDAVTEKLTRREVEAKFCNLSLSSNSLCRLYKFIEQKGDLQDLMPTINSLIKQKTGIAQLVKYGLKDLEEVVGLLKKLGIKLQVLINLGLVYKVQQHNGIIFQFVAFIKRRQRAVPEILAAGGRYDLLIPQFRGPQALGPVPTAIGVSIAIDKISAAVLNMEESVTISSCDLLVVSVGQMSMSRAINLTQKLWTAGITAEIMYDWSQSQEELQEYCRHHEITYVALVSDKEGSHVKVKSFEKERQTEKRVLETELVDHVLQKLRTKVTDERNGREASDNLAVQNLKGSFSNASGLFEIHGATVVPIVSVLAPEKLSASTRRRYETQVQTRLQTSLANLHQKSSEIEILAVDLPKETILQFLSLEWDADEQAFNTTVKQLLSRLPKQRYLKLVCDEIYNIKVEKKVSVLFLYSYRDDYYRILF
Chain of Cytochrome P450 3A4 (P08684 whole entry): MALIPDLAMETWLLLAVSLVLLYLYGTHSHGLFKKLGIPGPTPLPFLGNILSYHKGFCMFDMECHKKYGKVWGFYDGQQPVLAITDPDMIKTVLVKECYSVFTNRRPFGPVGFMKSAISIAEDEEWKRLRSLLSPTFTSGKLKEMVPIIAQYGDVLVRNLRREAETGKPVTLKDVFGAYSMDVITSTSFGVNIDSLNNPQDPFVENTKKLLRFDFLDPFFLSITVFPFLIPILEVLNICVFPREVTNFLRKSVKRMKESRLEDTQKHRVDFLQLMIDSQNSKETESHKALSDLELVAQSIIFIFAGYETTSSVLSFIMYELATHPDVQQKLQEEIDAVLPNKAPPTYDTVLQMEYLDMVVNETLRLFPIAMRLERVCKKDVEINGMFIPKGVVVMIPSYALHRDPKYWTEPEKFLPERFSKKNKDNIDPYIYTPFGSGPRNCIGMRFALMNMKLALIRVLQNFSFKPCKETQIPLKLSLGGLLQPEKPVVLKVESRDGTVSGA

Structure (SMILES)	fEC50 [2] [nM]	EC50 [3] [nM]	fraction unbound [6]	Vd [7] [L/kg]	half-life [8] [h]	fCmax [9] [nM]	fraction unbound at 24 h [10]	F [11] [%]	fAUC [12] [µM·h]	CL free [13] [mL/min/kg]	CLH [14] [µL/min]	CLH [15] [µL/min]	fVdss [16] [L/kg]	Cmax [17] [µM]	logD at 1 h (physchem)	also measured
CNC(=O)c1ncn2c1CC[C@H](c1c(F)ccc(NS(=O)(=O)c3cc(Cl)cnc3OC)c1F)C2	240	460	0.45	–	–	–	–	–	–	–	–	–	–	–	–	EC50 (eIF-2-alpha kinase GCN2 [1]): 240 nM; IC50 (Cytochrome P450 3A4): 33000 nM; IC50 (eIF-2-alpha kinase GCN2 [4]): 69 nM; fEC50 (eIF-2-alpha kinase GCN2 [5]): 110 nM
COc1ncc(Cl)cc1S(=O)(=O)Nc1ccc(F)c(-c2ccc3c(-c4ncc[nH]4)ncn3c2)c1F	170	1700	0.1	0.1	2.4	16	0.001	70	0.093	390	15	2.8	93	14.3	–	–
CNC(=O)c1ncn2cc(-c3c(F)ccc(NS(=O)(=O)c4cc(C#N)cnc4OC)c3F)ccc12	–	> 10000	–	–	–	–	–	–	–	–	–	–	–	–	1.6	–
CNC(=O)c1ncn2cc(-c3c(F)ccc(NS(=O)(=O)c4cc(F)cnc4OC)c3F)ccc12	–	> 10000	–	–	–	–	–	–	–	–	–	–	–	–	2.3	–
CNC(=O)c1ncn2cc(-c3c(F)ccc(NS(=O)(=O)c4cc(F)cnc4C)c3F)ccc12	–	5800	–	–	–	–	–	–	–	–	–	–	–	–	1.9	–
CNC(=O)c1ncn2cc(-c3c(F)ccc(NS(=O)(=O)c4cc(Cl)cnc4OC)c3F)ccc12	1100	4900	0.22	0.1	4.3	6.2	0.001	54	0.029	930	9.8	9	320	20.6	–	–
COc1ncc(Cl)cc1S(=O)(=O)Nc1ccc(F)c(-c2ccc3c(-c4ncc[nH]4)n[nH]c3c2F)c1F	55	1400	0.04	0.09	3.8	0.31	0.001	1.5	0.0011	740	8.2	4.4	180	0.62	–	–
CNC(=O)c1ncn2c(F)c(-c3c(F)ccc(NS(=O)(=O)c4cc(Cl)cnc4OC)c3F)ccc12	350	1500	–	–	–	–	–	–	–	–	–	–	–	–	3	–
CNC(=O)c1ncn2cc(-c3c(F)ccc(NS(=O)(=O)c4cc(Cl)cnc4OC)c3F)ncc12	2400	–	–	–	–	–	–	–	–	–	–	–	–	–	–	Activity (Mus musculus [18]): Active; Activity (Mus musculus [19]): Active; Activity (MOLM-16): Active
CNC(=O)c1ncn2cc(-c3c(F)ccc([N-]S(=O)(=O)c4cc(Cl)cnc4OC)c3F)ncc12.[K+]	–	–	–	–	–	28	–	–	0.14	–	–	–	–	40	–	bioavailability ([11]; Sprague-Dawley): 88%
CNC(=O)c1ncn2c1CC[C@H](c1c(F)ccc(NS(=O)(=O)c3cc(F)cnc3OC)c1F)C2	1000	1500	0.71	0.19	0.9	180	0.012	95	0.14	340	13	7.8	15	14.2	–	–
CNC(=O)c1ncn2nc(-c3c(F)ccc(NS(=O)(=O)c4cc(Cl)cnc4OC)c3F)ccc12	280	870	0.32	–	–	–	–	–	–	–	5.9	3.8	–	–	–	–
CNC(=O)c1n[nH]c2c(F)c(-c3c(F)ccc(NS(=O)(=O)c4cc(Cl)cnc4OC)c3F)ccc12	180	6100	0.03	0.11	8.9	20	0.002	25	0.13	88	11	5.8	56	10.4	–	–
